# Laboratory results as given in patent US7432260B2, “Pyrimidine compounds” (Cyclacel Limted, priority 2002, dated 2008).
# Legend:
# CDK4/cyclin D1 = CDK4/cyclin D1 (Homo sapiens, UniProt P11802); assay: Kinase assay CDK4/cyclin D1; format: biochemical; details: Table 2; read-out: Kinase Inhibition IC50 CDK4 cyclin D1
# Description: (§1) Kinase assays. […] This was achieved by measurement of incorporation of radioactive phosphate from ATP into appropriate polypeptide substrates. Recombinant protein kinases and kinase complexes were produced or obtained commercially. Assays were performed using 96-well plates and appropriate assay buffers (typically 25 mM β-glycerophosphate, 20 mM MOPS, 5 mM EGTA, 1 mM DTT, 1 mM […], pH 7.4), into which were added 2-4 μg of active enzyme with appropriate substrates. The reactions were initiated by addition of Mg/ATP mix (15 mM MgCl2+100 μM ATP with 30-50 kBq per well of [γ-^32P]-ATP) and mixtures incubated as required at 30° C. Reactions were stopped on ice, followed by filtration through p81 filterplates or GF/C filterplates (Whatman Polyfiltronics, Kent, UK). After washing 3 times with 75 mM aq orthophosphoric acid, plates were dried, scintillant added and incorporated radioactivity measured in a scintillation counter (TopCount, Packard Instruments, Pangbourne, Berks, UK). Compounds for kinase assay were made-up as 10 mM stocks in DMSO and diluted into 10% DMSO inrassay buffer.
# CDK7/cyclin H = CDK7/cyclin H (Homo sapiens, UniProt P50613); assay: CDK7 assay; format: biochemical; details: Table 2; read-out: Kinase Inhibition IC50 CDK7 cyclin H
# Chain of CDK7/cyclin H (P50613 whole entry): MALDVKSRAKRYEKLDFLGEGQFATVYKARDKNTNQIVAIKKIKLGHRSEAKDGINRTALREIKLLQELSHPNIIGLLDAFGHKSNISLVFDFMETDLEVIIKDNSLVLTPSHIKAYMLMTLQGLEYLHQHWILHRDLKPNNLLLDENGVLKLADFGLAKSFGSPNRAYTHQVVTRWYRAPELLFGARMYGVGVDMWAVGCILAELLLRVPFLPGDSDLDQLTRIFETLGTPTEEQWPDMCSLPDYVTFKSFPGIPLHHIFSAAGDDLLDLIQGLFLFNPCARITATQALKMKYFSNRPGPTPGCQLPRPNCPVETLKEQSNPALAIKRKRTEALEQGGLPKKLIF
# Description: as §1
# (§2) CDK 7 and 9 assays. CTD peptide substrate (biotinyl-Ahx-(Tyr-Ser-Pro-Thr-Ser-Pro-Ser)4-NH2; 1-2 mg/mL) and recombinant human CDK7/cyclin H, CDK9/cyclin T1, or CDK9/cyclin K (0.5-2 μg) were incubated for 45 min at 30° C. in the presence of varying amounts of test compound in 20 mM MOPS pH 7.2, 25 mM β-glycerophosphate, 5 mM EGTA, 1 mM DTT, 1 mM sodium vanadate, 15 mM MgCl2, and 100 μM ATP (containing a trace amount of ^32PγATP) in a total volume of 25 μL in a 96-well microtiter plate. The reaction was stopped by placing the plate on ice for 2 min. Avidin (50 μg) was added to each well, and the plate was incubated at room temp for 30 min. The samples were transferred to a 96-well P81 filter plate, and washed (4×200 μL per well) with 75 mM phosphoric acid. Microscint 40 scintillation liquid (50 μL) was added to each well, and the amount of ^32P incorporation for each sample was measured using a Packard Topcount microplate scintillation counter.
# CDK2/cyclin A = CDK2/cyclin A (Homo sapiens, UniProt P24941); assay: Kinase assay CDK2/cyclin A; format: biochemical; details: Table 2; read-out: Kinase Inhibition IC50 CDK2 cyclin A
# Description: as §1
# CDK2/cyclin E = CDK2/cyclin E (Homo sapiens, UniProt P24941); assay: Kinase assay CDK2/cyclin E; format: biochemical; details: Table 2; read-out: Kinase Inhibition IC50 CDK2 cyclin E
# Description: as §1
# GSK-3β = GSK-3β (Homo sapiens, UniProt P49841); assay: Kinase assay GSK-3β; format: biochemical; details: Table 2; read-out: Kinase Inhibition IC50 GSK-3β
# Chain of GSK-3β (P49841 whole entry): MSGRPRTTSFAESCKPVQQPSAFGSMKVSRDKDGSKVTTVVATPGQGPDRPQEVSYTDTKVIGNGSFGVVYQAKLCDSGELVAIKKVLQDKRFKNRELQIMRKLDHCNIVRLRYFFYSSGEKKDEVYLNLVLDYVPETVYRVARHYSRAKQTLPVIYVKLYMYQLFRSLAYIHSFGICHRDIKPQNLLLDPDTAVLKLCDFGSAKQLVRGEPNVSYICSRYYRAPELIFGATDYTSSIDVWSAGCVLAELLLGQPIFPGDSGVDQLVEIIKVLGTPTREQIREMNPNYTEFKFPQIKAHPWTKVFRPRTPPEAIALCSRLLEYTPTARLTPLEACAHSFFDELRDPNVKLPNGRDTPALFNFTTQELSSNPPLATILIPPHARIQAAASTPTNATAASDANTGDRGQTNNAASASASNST
# Description: as §1
# CDK1/cyclin B = CDK1/cyclin B (Homo sapiens, UniProt P06493); assay: Kinase assay CDK1/cyclin B; format: biochemical; details: Table 2; read-out: Kinase Inhibition IC50 CDK1 cyclin B
# Chain of CDK1/cyclin B (P06493 whole entry): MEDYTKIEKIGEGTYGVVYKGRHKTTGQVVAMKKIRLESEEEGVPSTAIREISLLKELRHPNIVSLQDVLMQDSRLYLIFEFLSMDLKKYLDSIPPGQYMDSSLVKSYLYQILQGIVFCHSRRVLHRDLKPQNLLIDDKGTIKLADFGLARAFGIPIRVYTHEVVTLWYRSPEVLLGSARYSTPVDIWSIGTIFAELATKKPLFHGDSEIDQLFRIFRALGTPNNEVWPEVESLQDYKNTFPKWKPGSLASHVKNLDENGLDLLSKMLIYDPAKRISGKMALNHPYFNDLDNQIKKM
# Chain of CDK1/cyclin B (P14635 whole entry partner): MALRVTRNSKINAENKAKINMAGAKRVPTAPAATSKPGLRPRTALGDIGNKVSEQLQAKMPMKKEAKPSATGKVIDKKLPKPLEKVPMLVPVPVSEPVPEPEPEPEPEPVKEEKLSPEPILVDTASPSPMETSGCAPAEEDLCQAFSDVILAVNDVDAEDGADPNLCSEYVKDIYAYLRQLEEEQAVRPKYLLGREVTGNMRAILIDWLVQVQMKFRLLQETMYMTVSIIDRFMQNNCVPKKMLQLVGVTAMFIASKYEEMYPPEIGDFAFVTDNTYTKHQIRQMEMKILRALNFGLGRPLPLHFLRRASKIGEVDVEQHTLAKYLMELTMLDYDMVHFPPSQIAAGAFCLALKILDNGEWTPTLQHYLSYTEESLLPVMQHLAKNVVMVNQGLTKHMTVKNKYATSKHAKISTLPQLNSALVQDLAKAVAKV
# Description: as §1
# A549 = assay: 72-h MTT cytotoxicity assay A549; format: cell-based; details: Homo sapiens, A549, 72 h, Table 4
# Description: (§3) MTT cytotoxicity assay. […] Standard 72-h MTT (thiazolyl blue; 3-[4,5-dimethylthiazol-2-yl]-2,5-diphenyltetrazolium bromide) assays were performed (Haselsberger, K.; Peterson, D. C.; Thomas, D. G.; Darling, J. L. Anti Cancer Drugs 1996, 7, 331-8; Loveland, B. E.; Johns, T. G.; Mackay, I. R.; Vaillant, F.; Wang, Z. X.; Hertzog, P. J. Biochemistry International 1992, 27, 501-10). In short: cells were seeded into 96-well plates according to doubling time and incubated overnight at 37° C. Test compounds were made up in DMSO and a 1/3 dilution series prepared in 100 μL cell media, added to cells (in triplicates) and incubated for 72 ho at 37° C. MTT was made up as a stock of 5 mg/mL in cell media and filter-sterilised. Media was removed from cells followed by a wash with 200 μL PBS.
# (§4) MTT solution was then added at 20 μL per well and incubated in the dark at 37° C. for 4 h. MTT solution was removed and cells again washed with 200 μL PBS. MTT dye was solubilised with 200 μL per well of DMSO with agitation.
# Saos-2 = assay: 72-h MTT cytotoxicity assay Saos-2; format: cell-based; details: Homo sapiens, SAOS-2, 72 h, Table 4
# Description: as §3, §4
# CDK9/cyclin T1 = CDK9/cyclin T1 (Homo sapiens, UniProt P50750); assay: CDK9 assay; format: biochemical; details: Table 2; read-out: Kinase Inhibition IC50 CDK9 cyclin T1
# Chain of CDK9/cyclin T1 (P50750 whole entry): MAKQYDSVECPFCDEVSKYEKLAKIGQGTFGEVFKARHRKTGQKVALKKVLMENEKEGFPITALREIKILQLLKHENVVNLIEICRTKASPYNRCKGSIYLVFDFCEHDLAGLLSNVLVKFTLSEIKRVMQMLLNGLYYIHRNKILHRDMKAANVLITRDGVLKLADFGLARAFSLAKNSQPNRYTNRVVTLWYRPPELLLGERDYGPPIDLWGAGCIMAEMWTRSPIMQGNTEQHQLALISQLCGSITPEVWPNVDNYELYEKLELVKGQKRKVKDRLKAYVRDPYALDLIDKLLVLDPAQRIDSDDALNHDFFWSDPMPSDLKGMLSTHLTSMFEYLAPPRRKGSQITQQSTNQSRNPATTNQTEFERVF
# Chain of CDK9/cyclin T1 (O60563 whole entry partner): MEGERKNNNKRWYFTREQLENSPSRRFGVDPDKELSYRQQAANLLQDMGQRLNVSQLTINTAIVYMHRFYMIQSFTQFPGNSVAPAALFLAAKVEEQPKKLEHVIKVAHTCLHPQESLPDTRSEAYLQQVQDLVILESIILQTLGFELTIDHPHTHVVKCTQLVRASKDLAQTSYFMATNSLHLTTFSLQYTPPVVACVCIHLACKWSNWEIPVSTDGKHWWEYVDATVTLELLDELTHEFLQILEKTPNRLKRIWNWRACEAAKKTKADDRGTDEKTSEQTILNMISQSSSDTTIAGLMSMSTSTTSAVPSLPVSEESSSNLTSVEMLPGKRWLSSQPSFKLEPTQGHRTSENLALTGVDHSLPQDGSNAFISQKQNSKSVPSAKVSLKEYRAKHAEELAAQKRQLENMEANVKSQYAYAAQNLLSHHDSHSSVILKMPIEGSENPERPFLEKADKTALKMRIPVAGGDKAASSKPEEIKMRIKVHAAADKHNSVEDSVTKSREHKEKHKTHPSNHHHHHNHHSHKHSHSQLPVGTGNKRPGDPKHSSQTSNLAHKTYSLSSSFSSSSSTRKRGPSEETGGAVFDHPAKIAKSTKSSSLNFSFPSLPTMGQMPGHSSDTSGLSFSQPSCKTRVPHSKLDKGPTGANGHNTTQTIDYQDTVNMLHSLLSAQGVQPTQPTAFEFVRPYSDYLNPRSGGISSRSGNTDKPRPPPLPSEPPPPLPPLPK
# Description: as §1, §2
# HT29 = assay: 72-h MTT cytotoxicity assay HT29; format: cell-based; details: Homo sapiens, HT-29, 72 h, Table 4
# Description: as §3, §4
# Chain of CDK4/cyclin D1 (P11802 whole entry): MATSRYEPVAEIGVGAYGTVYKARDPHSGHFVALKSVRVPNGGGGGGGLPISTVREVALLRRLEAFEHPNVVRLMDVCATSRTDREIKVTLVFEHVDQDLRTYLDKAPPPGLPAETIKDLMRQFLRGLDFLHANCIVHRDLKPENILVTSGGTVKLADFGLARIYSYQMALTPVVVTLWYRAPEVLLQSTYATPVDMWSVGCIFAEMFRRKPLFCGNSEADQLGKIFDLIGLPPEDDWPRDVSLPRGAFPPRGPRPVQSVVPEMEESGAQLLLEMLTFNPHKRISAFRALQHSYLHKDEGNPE
# Chain of CDK4/cyclin D1 (P24385 whole entry partner): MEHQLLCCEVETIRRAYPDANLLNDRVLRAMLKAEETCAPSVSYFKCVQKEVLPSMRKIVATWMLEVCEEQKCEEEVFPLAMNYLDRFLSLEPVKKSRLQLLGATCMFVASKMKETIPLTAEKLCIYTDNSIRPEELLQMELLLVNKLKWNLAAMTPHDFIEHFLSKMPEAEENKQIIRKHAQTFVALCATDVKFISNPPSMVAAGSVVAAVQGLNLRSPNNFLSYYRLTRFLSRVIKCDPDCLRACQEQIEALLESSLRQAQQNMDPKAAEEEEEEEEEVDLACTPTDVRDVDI
SMILES,IC50 (CDK4/cyclin D1) [nM],IC50 (CDK7/cyclin H) [nM],IC50 (CDK2/cyclin A) [nM],IC50 (CDK2/cyclin E) [nM],IC50 (GSK-3β) [nM],IC50 (CDK1/cyclin B) [nM],IC50 (CDK9/cyclin T1) [nM],IC50 (A549) [nM],IC50 (Saos-2) [nM],IC50 (HT29) [nM]
"Cc1nc(C)c(-c2ccnc(Nc3ccc(N4CCN(CCO)CC4)cc3)n2)s1 [Compound 9, 2-(4-{4-[4-(2,4-Dimethyl-thiazol-5-yl)-pyrimidin-2-ylamino]-phenyl}-piperazin-1-yl)-ethanol]",430,1300,1200,2200,–,5200,210,3000,2000,2000
"COc1cccc(Nc2nccc(-c3sc(NC(=O)CCN4CCOCC4)nc3C)n2)c1 [Compound 39, N-{5-[2-(3-Methoxy-phenylamino)-pyrimidin-4-yl]-4-methyl-thiazol-2-yl}-3-morpholin-4-yl-propionamide]",32000,–,2700,1200,–,11000,15000,800,950,720
"Cc1nc(NC(=O)CCN2CCOCC2)sc1-c1ccnc(Nc2ccc(Cl)cc2)n1 [Compound 35, N-{5-[2-(4-Chloro-phenylamino)-pyrimidin-4-yl]-4-methyl-thiazol-2-yl}-3-morpholin-4-yl-propionamide]",4700,–,3000,800,–,15000,1800,15000,26000,7700
"Cc1nc(NC(=O)CCN)sc1-c1ccnc(Nc2cccc([N+](=O)[O-])c2)n1 [Compound 13, 3-Amino-N-{4-methyl-5-[2-(3-nitro-phenylamino)-pyrimidin-4-yl]-thiazol-2-yl}-propionamide]",670,370,570,280,–,5600,42,3100,1900,2800
"Cc1nc(NC(=O)CCl)sc1-c1ccnc(Nc2ccc(Cl)cc2)n1 [Compound 34, 2-Chloro-N-{5-[2-(4-chloro-phenylamino)-pyrimidin-4-yl]-4-methyl-thiazol-2-yl}-acetamide]",7000,–,–,1400,730,–,–,3900,3300,3200
"Cc1nc(NC(=O)CNCCOCCO)sc1-c1ccnc(Nc2ccc(N(C)C)cc2)n1 [Compound 29, N-{5-[2-(4-Dimethylamino-phenylamino)-pyrimidin-4-yl]-4-methyl-thiazol-2-yl}-2-[2-(2-hydroxy-ethoxy)-ethylamino]-acetamide]",1100,1200,490,470,560,860,–,690,720,2600
"COc1ccc(Nc2nccc(-c3sc(NC(=O)CCN4CCN(C)CC4)nc3C)n2)cc1 [Compound 40, N-{5-[2-(4-Methoxy-phenylamino)-pyrimidin-4-yl]-4-methyl-thiazol-2-yl}-3-(4-methyl-piperazin-1-yl)-propionamide]",7400,–,14000,64000,–,61000,8900,4400,4300,730
"CCN(CC)CCNCCC(=O)Nc1nc(C)c(-c2ccnc(Nc3ccc(Cl)cc3)n2)s1 [Compound 36, N-{5-[2-(4-Chloro-phenylamino)-pyrimidin-4-yl]-4-methyl-thiazol-2-yl}-3-(2-diethylamino-ethylamino)-propionamide]",8800,4000,13000,3400,–,33000,4800,26000,38000,9600
"Cc1nc(NC(=O)CCNCCN2CCOCC2)sc1-c1ccnc(Nc2ccc(Cl)cc2)n1 [Compound 37, N-{5-[2-(4-Chloro-phenylamino)-pyrimidin-4-yl]-4-methyl-thiazol-2-yl}-3-(2-morpholin-4-yl-ethylamino)-propionamide]",18000,–,16000,8000,–,> 100000,6300,35000,73000,15000
"CC(=O)Nc1ccc(Nc2nccc(-c3sc(C)nc3C)n2)cc1 [Compound 45, N-{4-[4-(2,4-Dimethyl-thiazol-5-yl)-pyrimidin-2-ylamino]-phenyl}-acetamide]",370,17000,840,660,–,2500,240,2600,2800,2200

# The next lines start with results.
IC50 (CDK4/cyclin D1) [nM],IC50 (CDK7/cyclin H) [nM],IC50 (CDK2/cyclin A) [nM],IC50 (CDK2/cyclin E) [nM],IC50 (GSK-3β) [nM],IC50 (CDK1/cyclin B) [nM],IC50 (CDK9/cyclin T1) [nM],SMILES,IC50 (A549) [nM],IC50 (Saos-2) [nM],IC50 (HT29) [nM]
300,430,50,76,300,140,–,"Cc1nc(N)sc1-c1ccnc(Nc2cccc(S(C)(=O)=O)c2)n1 [Compound 84, [4-(2-Amino-4-methyl-thiazol-5-yl)-pyrimidin-2-yl]-(3-methanesulfonyl-phenyl)-amine]",–,–,–
3200,11000,140,150,5400,1800,–,"Cc1nc(N)sc1-c1ccnc(Nc2ccc(S(C)(=O)=O)cc2)n1 [Compound 76, [4-(2-Amino-4-methyl-thiazol-5-yl)-pyrimidin-2-yl]-(4-methanesulfonyl-phenyl)-amine]",5800,1300,1800
670,370,150,25,1000,480,–,"CNc1nc(C)c(-c2ccnc(Nc3cccc(CNS(C)(=O)=O)c3)n2)s1 [Compound 83, N-{3-[4-(4-Methyl-2-methylamino-thiazol-5-yl)-pyrimidin-2-ylamino]-benzyl}-methanesulfonamide]",–,–,–
42,480,61,65,820,150,–,"CCNc1nc(C)c(-c2ccnc(Nc3cccc(CO)c3)n2)s1 [Compound 68, {3-[4-(2-Ethylamino-4-methyl-thiazol-5-yl)-pyrimidin-2-ylamino]-phenyl}-methanol]",–,–,–
2300,4000,1300,14,1200,2700,–,"CNc1nc(C)c(-c2ccnc(Nc3cccc(CNS(=O)(=O)C(F)(F)F)c3)n2)s1 [Compound 82, C,C,C-Trifluoro-N-{3-[4-(4-methyl-2-methylamino-thiazol-5-yl)-pyrimidin-2-ylamino]-benzyl}-methanesulfonamide]",–,–,–
1300,2800,1200,640,470,15000,–,"Cc1c(-c2ccnc(Nc3ccc(N4CCOCC4)cc3)n2)sc(=O)n1C [Compound 92, 3,4-Dimethyl-5-[2-(4-morpholin-4-yl-phenylamino)-pyrimidin-4-yl]-3H-thiazol-2-one]",–,–,–
